Reference: ChEMBL document CHEMBL1127124, “Selective inactivation of monoamine oxidase B by aminoethyl 3-chlorobenzyl ether” (Bioorg Med Chem Lett, 1993)

Columns and labels:
[1] = target: T1, Amine oxidase [flavin-containing] B (Bos taurus, UniProt P56560); experiment: Tested for enzyme affinity with purified bovine liver MAO B
T1 sequence (P56560 whole entry): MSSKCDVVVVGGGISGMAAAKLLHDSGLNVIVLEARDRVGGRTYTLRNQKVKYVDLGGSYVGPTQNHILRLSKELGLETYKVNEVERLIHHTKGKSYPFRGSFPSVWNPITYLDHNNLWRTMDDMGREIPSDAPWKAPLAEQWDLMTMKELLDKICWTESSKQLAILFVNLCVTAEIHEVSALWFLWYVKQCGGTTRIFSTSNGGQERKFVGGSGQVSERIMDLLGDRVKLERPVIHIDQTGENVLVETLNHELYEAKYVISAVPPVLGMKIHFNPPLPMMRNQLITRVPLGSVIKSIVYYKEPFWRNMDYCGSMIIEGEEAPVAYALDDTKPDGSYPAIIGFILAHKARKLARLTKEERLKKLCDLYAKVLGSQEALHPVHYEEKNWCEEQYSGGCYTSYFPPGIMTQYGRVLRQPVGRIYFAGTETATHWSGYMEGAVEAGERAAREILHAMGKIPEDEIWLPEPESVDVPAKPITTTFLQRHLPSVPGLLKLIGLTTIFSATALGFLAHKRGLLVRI

[2] = target: T1, Amine oxidase [flavin-containing] B; experiment: Tested for enzyme kinetic activity with purified bovine liver MAO B; conditions: cattle
[3] = target: T2, Amine oxidase [flavin-containing] A (Bos taurus, UniProt P21398); experiment: Tested for enzyme affinity with purified bovine liver MAO A
T2 sequence (P21398 whole entry): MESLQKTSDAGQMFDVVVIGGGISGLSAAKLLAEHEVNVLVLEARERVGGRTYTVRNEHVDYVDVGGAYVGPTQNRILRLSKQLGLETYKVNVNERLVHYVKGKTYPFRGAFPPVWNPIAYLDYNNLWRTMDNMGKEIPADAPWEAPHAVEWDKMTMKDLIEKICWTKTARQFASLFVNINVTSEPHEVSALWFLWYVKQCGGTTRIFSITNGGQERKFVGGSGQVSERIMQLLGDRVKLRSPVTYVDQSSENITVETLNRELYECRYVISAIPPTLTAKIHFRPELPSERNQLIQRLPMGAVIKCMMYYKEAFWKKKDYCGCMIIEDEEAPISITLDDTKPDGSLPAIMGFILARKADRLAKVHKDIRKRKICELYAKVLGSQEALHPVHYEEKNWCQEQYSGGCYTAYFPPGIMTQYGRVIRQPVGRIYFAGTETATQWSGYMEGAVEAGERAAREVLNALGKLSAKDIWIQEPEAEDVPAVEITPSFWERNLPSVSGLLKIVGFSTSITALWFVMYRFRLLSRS

[4] = target: T2, Amine oxidase [flavin-containing] A; experiment: Tested for enzyme kinetic activity with purified bovine liver MAO A; conditions: cattle

- Ki [1]: 5 µM
- kinact [2]: 0.0117 s⁻¹
- Ki [3]: 340 µM
- kinact [4]: 0.000467 s⁻¹
Structure (SMILES): NCCOCc1cccc(Cl)c1
